Marks after values point to notes of the source that are not given here.
Columns and labels:
M. incognita eggs = experiment: Microwell assay: eggs immersed in compounds, hatch and activity of hatched J2; format: in vivo, Meloidogyne incognita; conditions: 0.1%; for % Active Day 2 / % Active Day 5 / % Active Day 7: J2 hatched from immersed eggs; for Hatch Day 2 / Hatch Day 5 / Hatch Day 7: hatched J2 per well, about 35 eggs per well
Description: (§1) All chemicals were used without further purification.
(§2) These are reported as 0.1% herein.
(§3) The nematodes were then incubated at 26° C. […] Two trials were conducted for each assay.
(§4) The assumptions of the model were checked.

[1] = system: M. incognita second-stage juveniles; experiment: Microwell assay: previously hatched J2 immersed in compounds, activity and viability; conditions: for % Active Day 1 / % Active Day 2: previously hatched J2 in aqueous solution; for viability at 0.1 % / mortality at 0.1 %: Meloidogyne incognita, 72 h; for viability at 0.1 %: read-out: % Viable Day 3 rinsed; for mortality at 0.1 %: read-out: nonviable (killed) J2
Description: Nematode cultures: As described in Meyer et al. (Meyer, S. L. F., et al., Nematropica, 46: 85-96 (2016)), M. incognita race 1 (originally isolated in Maryland) was maintained in a greenhouse (24° to 29° C.; natural and supplemental lighting combined for a 16-h daylength) on susceptible cayenne pepper (Capsicum annuum) TA-136′ plants. All greenhouse experiments described herein were conducted under the same conditions. Two to three months after pepper plant inoculation, egg masses were picked from roots. Eggs were separated by 5 min immersion in 0.6% sodium hypochlorite, followed by a rinse in sterile distilled water (SDW). To collect second-stage juveniles (J2) for microwell assays, the surface-sterilized eggs were placed in a hatching chamber (Spectra/Mesh Nylon Filter, openings 25-μm-diam.; Spectrum Laboratories Inc., Rancho Dominguez, Calif.) set in an autoclaved dish that was placed on a rotary shaker for 3 days at 35 rpm. For some M. incognita and H. glycines assays, 25 or […] kanamycin monosulfate (Phytotechnology Laboratories, Shawnee Mission, Kans.) was added to the hatching chamber to prevent growth of bacteria. The collected J2 were then rinsed with water to remove the kanamycin monosulfate.
(§5) Compounds for the studies were purchased from three different companies: methyl benzoate, CAS Number 93-58-3, ≥99% purity; Tween 20, CAS Number: 9005-64-5; Tween 80, CAS Number: 9005-65-6; ethyl benzoate, CAS Number: 93-89-0, natural, ≥99% purity, FCC, FG; vinyl benzoate, CAS Number: 769-78-8, ≥99% purity; n-propyl benzoate, CAS Number: 2315-68-6, 99% purity; n-butyl benzoate, CAS Number: 136-60-7, 99% purity; benzyl benzoate, CAS Number: 120-51-4, natural, ≥99% purity, FCC, FG; methyl 2-methylbenzoate, CAS Number: 89-71-4, 99% purity; methyl 2-chlorobenzoate, CAS Number: 610-96-8, ≥98% purity; methyl 2-methoxybenzoate, CAS Number: 606-45-1, 99% purity and methyl 2-nitrobenzoate, CAS Number: 606-27-9, 98% purity were purchased from Sigma-Aldrich (St. Louis, Mo.). Compounds, iso-butyl benzoate, CAS Number 120-50-3, >98% purity; n-pentyl benzoate, CAS Number: 2049-96-9, ≥98% purity; and n-hexyl benzoate, CAS Number: 6789-88-4, ≥98% purity were purchased from Alfa Aesar (Tewksbury, Mass.). The compounds methyl 3-methoxybenzoate (methyl m-anisate), CAS Number: 5368-81-0; 97% and methyl 3-methylbenzoate (methyl m-toluate), CAS Number: 99-36-5, 97% purity were purchased from TCI America (Portland, Oreg.). All chemicals were used without further purification. Deionized water (DI) containing 1% emulsifier (v/v), Tween 20 and Tween 80, at 1:1 ratio was used to make different VOCs (volatile organic compounds) water solutions and also used as blank control.
(§6) For tests with individual compounds, the concentration of each compound was 0.1% before placement into wells; the final concentration in the wells was 0.095% after addition to eggs or J2 suspended in water. These are reported as 0.1% herein. An exception was Trial 2, M. incognita J2 activity and viability (Table 2): the final concentration was 0.1% after placement in wells. Low concentrations were selected for assays of combined compounds to determine if the combinations would increase nematotoxicity.
(§7) Laboratory assays were conducted in 96-well polystyrene plates following general procedures described in Wen et al. (2019). Each well received approximately 35 J2 (for previously hatched J2 assays) or 35 eggs that each contained either a first-stage juvenile (J1) or a J2. The plates were covered with plastic adhesive sealing film (Excel Scientific, Inc., Victorville Calif.) and then with the plate lids. Parafilm (Bemis, Neenah, Wis.) was used to seal the plates. The nematodes were then incubated at 26° C. […] Following the counts on Day 2, the treatments were removed and the J2 rinsed twice with SDW and incubated in the second rinse. […] Two trials were conducted for each assay.

Caenorhabditis elegans = conditions: produced by Bacillus nematocida; cited from earlier work
[2] = system: H. glycines second-stage juveniles; experiment: Microwell assay: previously hatched J2 immersed in compounds, activity and viability; conditions: for reduction in % viable J2 compared with the Tween control / % Active Day 1 / % Active Day 2: 0.1%; for reduction in % viable J2 compared with the Tween control: Day 3 following water rinse; for % Active Day 1 / % Active Day 2: previously hatched J2 in aqueous solution; for viability at 0.1 %: Heterodera glycines, 72 h, read-out: % Viable Day 3 rinsed
Description: The isolate of H. glycines race 3, originally isolated in Maryland, was maintained on soybean (Glycine max cv. ‘Essex’). As previously described (Wen, Y., et al. Plant Disease, 103: 2191-2198 (2019)), the roots were gently rubbed in water to dislodge cysts and mature females. The egg suspensions were then poured through nested sieves (#20 over /#60; pore sizes 850 μm and 250 μm diam., respectively) into a 454 g/liter sucrose solution. After 15 min, the cysts and females and cysts that floated to the top were collected, rinsed in water, and crushed with a rubber stopper on a #60 sieve (250-μm diam. pore size) that was partially submerged in distilled water. The egg suspension was washed through nested #230 over #500 sieves (pore sizes 63 μm and 25-μm diam., respectively). The eggs were collected in distilled water, and J2 hatched as described above.
as §5, §6, §7
Statistical analyses: The data were analyzed as either a general linear model using JMP or a generalized linear model for the best distribution to fit the residual using Proc Glimmix (Sas Institute). The assumptions of the model were checked. If not met, then appropriate statistical techniques were used so that data could met the assumptions of the models. In Sas, mean comparisons were done with Sidak adjusted p-values to hold the experiment-wise error at 0.05.

Heterodera glycines eggs = experiment: Microwell assay: eggs immersed in compounds, hatch and activity of hatched J2; format: in vivo; conditions: 0.1%; for % Active Day 2 / % Active Day 5 / % Active Day 7: J2 hatched from immersed eggs; for Hatch Day 2 / Hatch Day 5 / Hatch Day 7: hatched J2 per well, about 35 eggs per well; for pest or weed control at 0.1 %: Heterodera glycines, 168 h, Day 7, read-out: egg hatch suppression compared with the Tween control
Description: as §1, §2, §3, §4

C. elegans = conditions: during the first hours of incubation; cited from earlier work
M. incognita = conditions: in vivo; cited from earlier work
X americanum adults = conditions: in vivo; cited from earlier work

Compound	% Active Day 2 (M. incognita eggs)	% Active Day 5 (M. incognita eggs)	% Active Day 7 (M. incognita eggs)	Hatch Day 2 (M. incognita eggs)	Hatch Day 5 (M. incognita eggs)	Hatch Day 7 (M. incognita eggs)	% Active Day 1 ([1]; 0.1%)	% Active Day 2 ([1]; 0.1%)	viability at 0.1 % [1]	reduction in % viable J2 compared with the Tween control [2]	% Active Day 1 [2]	% Active Day 2 [2]	viability at 0.1 % [2]	% Active Day 2 (Heterodera glycines eggs)	% Active Day 5 (Heterodera glycines eggs)	% Active Day 7 (Heterodera glycines eggs)	Hatch Day 2 (Heterodera glycines eggs)	Hatch Day 5 (Heterodera glycines eggs)	Hatch Day 7 (Heterodera glycines eggs)	pest or weed control at 0.1 % (Heterodera glycines eggs)	also measured
O=C(OCc1ccccc1)c1ccccc1 [BB, Benzyl benzoate]	67.0 ^ab %	33.5 ^cd %	24.8 ^b %	2.6 ^cd	4.2 ^cde	4.1 ^de	83.2 ^a %	83.1 ^a %	79.9%	33%	66.4 ^bc %	60.1 ^abc %	41.2%	15.2 ^cd %	17.0 ^cde %	13.5 ^bc %	4.1 ^cd	4.5 ^cd	4.6 ^cd	64 to 80%	% Viable Day 3 rinsed ([1]; 0.1%, after Day 2 water rinse): did not show a significant difference; nematode attraction (Caenorhabditis elegans): nematode attractant
CC(=O)c1c(O)cc(O)c(C(C)=O)c1O [DAPG, 2,4-diacetylphloroglucinol]																					hatch (C. elegans): stimulated hatch; egg hatch (M. incognita): decreased egg hatch; toxicity to adults (X americanum adults): toxic
COC(=O)c1ccccc1Cl [M2CB, Methyl 2-chlorobenzoate]	0 ^c %	0 e %	0 ^c %	1.7 ^d	1.7 ^e	2.3 ^e	0 ^f %	0 ^d %	0%	99%	0.46 ^e %	1.6 ^g %	0.5%	0 ^e %	6.4 ^de %	0 ^d %	5.4 ^cd	5.8 ^cd	5.5 ^cd	64 to 80%	decrease in total hatch compared with the Tween control (M. incognita eggs; Day 7): ~95%; mortality at 0.1 % [1]: 100%; inactive J2 that hatched from the eggs (Heterodera glycines eggs; by Day 7): 100%
CCCCCCOC(=O)c1ccccc1 [nHB, n-Hexyl benzoate]	73.2 ^ab %	40.5 ^cd %	16.5 ^b %	11.6 ^ab	13.0 ^b	13.0 ^bc	84.5 ^a %	82.4 ^c %	66.3%		73.2 ^ab %	63.5 ^ab %	46.2%	19.1 ^cd %	16.8 ^cde %	14.6 ^bc %	7.3 ^bcd	7.5 ^bcd	7.6 ^bcd		% Viable Day 3 rinsed ([1]; in vivo): did not have a significant effect
COC(=O)c1ccccc1C [M2MB, Methyl 2-methylbenzoate]	45.3 ^ab %	11.8 ^d %	17.4 ^b %	4.3 ^cd	6.6 ^bcd	7.6 ^cd	2.5 ^e %	0 ^d %	0%		50.4 ^c %	52.7 ^bc %	46.4%	23.8 ^cd %	24.3 ^cde %	30.9 ^ab %	6.6 ^bcd	7.6 ^bcd	7.4 ^bcd		mortality at 0.1 % [1]: 100%
